IC50 data for two molecules are collected here from US10350206B2, “Benzyl substituted indazoles as BUB1 inhibitors” (Bayer Pharma Aktiengesellschaft, priority 2014, dated 2019).

Experiment [1] addresses T1, catalytic domain of human Bub1 (amino acids 704-1085) (Homo sapiens, UniProt O43683).
T1 construct: catalytic domain of human Bub1 (amino acids 704-1085); His6 (N); made in house; host or cells: Hi5 insect cells
Kind of experiment: Bub1 kinase assay (TR-FRET). Type of experiment: biochemical. Conditions: 10 μM ATP, 60 min reaction, pH 7.5; read-out: Biological Assay 1: Bub1 kinase assay median IC50.

Experiment [2] relates to HeLa human cervical tumor cells. Kind of experiment: Proliferation Assay (HeLa+Paclitaxel). The format is cell-based. Conditions: 3 nM paclitaxel, test substance 92 hours; read-out: Biological Assay 3: Proliferation Assay (HeLa + Paclitaxel) IC50.
Experiment [3] relates to Bub1 kinase (histone 2A phosphorylation). Kind of experiment: H2A Formation-Assay (cell-based mechanistic assay, co-treatment with Nocodazole). Conditions: 16 h, Nocodazole 1 μg/ml together with test compound for 16 h; read-out: Biological Assay 4.1: H2A Formation IC50.
In experiment [4] the test system is Bub1 kinase (pre-induced phospho-histone 2A). Kind of experiment: H2A Abrogation-Assay (cell-based mechanistic assay, pre-treatment with Nocodazole). Particulars: Nocodazole 1 μg/ml 16 h, then test compound 1 h; read-out: Biological Assay 4.2: H2A Abrogation IC50.

T1 sequence (O43683 704-1085): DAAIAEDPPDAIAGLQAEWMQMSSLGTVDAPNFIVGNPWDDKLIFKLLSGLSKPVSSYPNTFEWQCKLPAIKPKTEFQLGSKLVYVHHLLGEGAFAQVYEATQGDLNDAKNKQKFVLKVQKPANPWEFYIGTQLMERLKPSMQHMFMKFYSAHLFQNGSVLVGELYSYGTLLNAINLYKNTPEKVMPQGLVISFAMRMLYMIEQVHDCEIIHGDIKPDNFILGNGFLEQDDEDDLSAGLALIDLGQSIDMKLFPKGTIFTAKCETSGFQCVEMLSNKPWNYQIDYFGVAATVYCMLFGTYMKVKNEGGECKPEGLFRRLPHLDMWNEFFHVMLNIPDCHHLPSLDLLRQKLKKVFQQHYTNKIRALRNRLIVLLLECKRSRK

Take `COc1cnc(-c2nn(Cc3c(F)cc(OCCO)cc3F)c3ccccc23)nc1Nc1ccnc(C)c1` [Example 2-1-2, 2-{3,5-difluoro-4-[(3-{5-methoxy-4-[(2-methylpyridin-4-yl)amino]pyrimidin-2-yl}-1H-indazol-1-yl)methyl]phenoxy}ethanol]: the IC50 in experiment [1] is 0.024 µM; in experiment [2], 0.35 µM; in experiment [3], 0.0087 µM; in experiment [4], 0.011 µM.
On the same counts, the results for `COc1cnccc1Nc1nc(-c2nn(Cc3c(F)cc(OCCO)cc3F)c3ccccc23)ncc1OC` [Example 2-1-3, 2-{3,5-difluoro-4-[(3-{5-methoxy-4-[(3-methoxypyridin-4-yl)amino]pyrimidin-2-yl}-1H-indazol-1-yl)methyl]phenoxy}ethanol] are 0.0071 µM, 0.063 µM, 0.043 µM and 0.029 µM.
